Assay: xn = mol fraction of the nth substance listed
Conditions: 92.3 kPa, Liquid; for viscosity: Concentric cylinders viscometry; for speed of sound: Frequency=3 MHz, Single path-length method; for mass density: Vibrating tube method

OCCOCCO [diethylene glycol] + O
Conditions | mass density, 303.15 K [kg/m3] | mass density, 308.15 K [kg/m3] | speed of sound, 303.15 K [m/s] | speed of sound, 308.15 K [m/s] | viscosity, 303.15 K [mPa·s] | viscosity, 308.15 K [mPa·s]
x1 = 0.0097 | 1003.37 | 1001.63 | 1533.2 | 1542 | – | –
x1 = 0.0201 | 1010.67 | 1008.81 | 1557.2 | 1564 | – | –
x1 = 0.0297 | 1017 | 1015.02 | 1577.4 | 1582.4 | – | –
x1 = 0.0397 | 1023.28 | 1021.17 | 1596.1 | 1599.4 | – | –
x1 = 0.049 | 1028.58 | 1026.33 | – | – | 1.6 | 1.413
x1 = 0.0502 | 1029.24 | 1026.99 | 1614 | 1615.7 | – | –
x1 = 0.0591 | 1033.98 | 1031.63 | 1627.4 | 1627.8 | – | –
x1 = 0.0703 | 1039.6 | 1037.11 | 1642.7 | 1641.6 | – | –
x1 = 0.0796 | 1043.88 | 1041.29 | 1653.2 | 1650.9 | – | –
x1 = 0.0897 | 1048.13 | 1045.45 | 1663.2 | 1659.9 | – | –
x1 = 0.0992 | 1051.97 | 1049.2 | – | – | 2.605 | 2.273
x1 = 0.1004 | 1052.46 | 1049.66 | 1672.7 | 1668.3 | – | –
x1 = 0.149 | 1068.06 | 1064.94 | – | – | 3.83 | 3.297
x1 = 0.1507 | 1068.42 | 1065.27 | 1698.5 | 1690.5 | – | –
x1 = 0.1996 | 1079.15 | 1075.79 | 1705.1 | 1695.2 | – | –
x1 = 0.1998 | 1079.37 | 1076.01 | – | – | 5.27 | 4.501
x1 = 0.2467 | 1086.77 | 1083.27 | 1701.8 | 1690.9 | – | –
x1 = 0.249 | 1086.95 | 1083.44 | – | – | 6.766 | 5.753
x1 = 0.2943 | 1091.84 | 1088.25 | 1694.1 | 1682.5 | – | –
x1 = 0.2987 | 1092.38 | 1088.8 | – | – | 8.326 | 7.056
x1 = 0.3501 | 1096.45 | 1092.82 | – | – | 9.951 | 8.401
x1 = 0.3511 | 1096.61 | 1092.99 | 1681.7 | 1669.7 | – | –
x1 = 0.3995 | 1099.42 | 1095.83 | 1670.2 | 1658 | – | –
x1 = 0.4007 | 1099.43 | 1095.8 | – | – | 11.5 | 9.648
x1 = 0.4504 | 1101.7 | 1098.07 | – | – | 12.97 | 10.79
x1 = 0.4527 | 1101.88 | 1098.24 | 1657.7 | 1645.4 | – | –
x1 = 0.4973 | 1103.4 | 1099.78 | – | – | 14.26 | 11.82
x1 = 0.5008 | 1103.56 | 1099.92 | 1646.6 | 1634.3 | – | –
x1 = 0.5449 | 1104.75 | 1101.11 | 1637.3 | 1625 | – | –
x1 = 0.553 | 1105 | 1101.38 | – | – | 15.69 | 12.94
x1 = 0.5834 | 1105.61 | 1101.98 | 1629.2 | 1617 | – | –
x1 = 0.5938 | 1105.91 | 1102.29 | – | – | 16.62 | 13.67
x1 = 0.6482 | 1106.76 | 1103.13 | 1616.6 | 1604.4 | – | –
x1 = 0.6514 | 1106.89 | 1103.27 | – | – | 17.9 | 14.67
x1 = 0.6864 | 1107.34 | 1103.72 | – | – | 18.56 | 15.18
x1 = 0.6982 | 1107.42 | 1103.8 | 1608.1 | 1596 | – | –
x1 = 0.7444 | 1107.94 | 1104.33 | 1600.4 | 1588.3 | – | –
x1 = 0.7556 | 1108.01 | 1104.38 | – | – | 19.68 | 16.06
x1 = 0.7962 | 1108.41 | 1104.81 | 1592.7 | 1580.7 | – | –
x1 = 0.7999 | 1108.35 | 1104.73 | – | – | 20.32 | 16.57
x1 = 0.8401 | 1108.74 | 1105.14 | 1586.6 | 1574.5 | – | –
x1 = 0.8525 | 1108.74 | 1105.13 | – | – | 20.98 | 17.08
x1 = 0.8947 | 1109.09 | 1105.49 | 1579.5 | 1567.5 | – | –
x1 = 0.9002 | 1109.09 | 1105.5 | – | – | 21.55 | 17.53
x1 = 0.9092 | 1109.17 | 1105.58 | 1577.7 | 1565.7 | – | –
x1 = 0.919 | 1109.23 | 1105.64 | 1576.5 | 1564.5 | – | –
x1 = 0.9303 | 1109.27 | 1105.68 | 1575.3 | 1563.3 | – | –
x1 = 0.9393 | 1109.28 | 1105.69 | 1574.3 | 1562.3 | – | –
x1 = 0.9473 | 1109.36 | 1105.77 | 1573.3 | 1561.4 | – | –
x1 = 0.9554 | 1109.45 | 1105.86 | – | – | 22.07 | 17.95
x1 = 0.9566 | 1109.41 | 1105.82 | 1572.2 | 1560.2 | – | –
x1 = 0.9694 | 1109.47 | 1105.88 | 1570.8 | 1558.9 | – | –
x1 = 0.9801 | 1109.52 | 1105.93 | 1569.6 | 1557.7 | – | –
x1 = 0.9915 | 1109.56 | 1105.97 | 1568.3 | 1556.4 | – | –
x1 = 1 | 1109.6 | 1106.01 | 1567.2 | 1555.3 | 22.48 | 18.27

— the NIST ThermoML archive (doi:10.1016/j.jct.2018.02.022)
